Reference: patent publication US20040037856A1, “Use of compounds containing a thio-ether, sulphoxide or sulphone function as cosmetic anti-pollution agent” (priority 2000, published 2004)

Assays:
human keratinocytes [1] = experiment: Toxicity of CMC to the keratinocytes (nontoxic dose); type: cell-based; conditions: dissolved in the culture medium, 24 hours
Description: The study was performed on a monolayer culture of human keratinocytes. The cells are inoculated on D-3 into 48-well dishes at a rate of 25 000 cells/cm^2 in 500 μl of culture medium. The incubations are performed at 37° C., 5% CO2 under a humid atmosphere.
The cells were pretreated for 24 hours with CMC (0.5 mg/ml, half-maximal dose that is nontoxic to the cells, dissolved in the culture medium).

human keratinocytes [2] = experiment: Ozone-induced lipid hydroperoxides (DCFH-DA fluorescence) in monolayer culture of human keratinocytes; type: cell-based; conditions: for % fluorescence observed ± SEM in the presence of CMC, relative to the unprotected controls: 24 h pretreatment with CMC 0.5 mg/ml, CMC 1 mg/ml in PBS during exposure (b102 says 200 μM), controls = 100%, n=4
Description: Ozone has the capacity to oxidize cell constituents, especially generating carbonylated proteins and lipid hydroperoxides. Quantification of the lipid hydroperoxides is one means of measuring the oxidative stress induced by exposing skin tissue to this pollutant. A decrease in their content indicates a protective effect. The study was performed on a monolayer culture of human keratinocytes. The cells are inoculated on D-3 into 48-well dishes at a rate of 25 000 cells/cm^2 in 500 μl of culture medium. The incubations are performed at 37° C., 5% CO2 under a humid atmosphere. The cells were pretreated for 24 hours with CMC (0.5 mg/ml, half-maximal dose that is nontoxic to the cells, dissolved in the culture medium). Hydroperoxides constitute an intracellular stress marker. They are detected and quantified by means of a fluorescence technique (Lebel C. P., Ischiropoulos H. and Bondy S. C. (1992) Evaluation of the probe 2,7-dichlorofluorescin as an indicator of Reactive Oxygen Species formation and oxidative stress. Chem. Res. Toxicol.; 5: 227-231). In the presence of intracellular hydroperoxides and peroxidases, DCFH is oxidized to fluorescent 2,7-dichlorofluorescein (DCF). The cells, pretreated for 24 hours with CMC, are then washed with PBS buffer and placed in contact for 30 minutes with a solution of DCFH-DA (500 μl/well), prepared in the culture medium to a concentration of 320 μM. The cells are again rinsed with PBS buffer and then placed in contact with a CMC solution at a concentration of 1 mg/ml in PBS (100 μl/well). They are then exposed to ozone (1 ppm), under a humid atmosphere, in an incubator set at 37° C. The formation of fluorescent DCF (excitation filter at 485 nm and emission filter at 530 nm) resulting from the production of hydroperoxides is measured after different times of exposure to ozone: 0, 5, 10 and 20 minutes. Toxicity of ozone toward human keratinocytes in culture, in the absence and presence of S-carboxymethylcysteine at a concentration of 200 μM, as a function of the exposure time (n=4). For each time, the fluorescence values of the unprotected controls are set at 100%. The results in the presence of CMC are then expressed relative to this control value. […] This protection is at a maximum from 5 minutes of exposure onward (67.7% drop in induced stress). It is still significant after 20 minutes of exposure (53.5% drop in induced stress) relative to the unprotected controls.

## N[C@@H](CSCC(=O)O)C(=O)O [CMC, S-carboxymethylcysteine]
Human keratinocytes [1]
  half-maximal dose that is nontoxic to the cells: 0.5 mg/mL
Human keratinocytes [2]; 5 min. of contact with ozone (1 ppm)
  % fluorescence observed ± SEM in the presence of CMC, relative to the unprotected controls: 32.4 ± 5.9%
Human keratinocytes [2]; 5 minutes of exposure to ozone
  drop in induced stress relative to the unprotected controls: 67.7%
Human keratinocytes [2]; 10 min. of contact with ozone (1 ppm)
  % fluorescence observed ± SEM in the presence of CMC, relative to the unprotected controls: 33.7 ± 5.0%
Human keratinocytes [2]; 20 min. of contact with ozone (1 ppm)
  % fluorescence observed ± SEM in the presence of CMC, relative to the unprotected controls: 46.5 ± 8.5%
Human keratinocytes [2]; 20 minutes of exposure to ozone
  drop in induced stress relative to the unprotected controls: 53.5%
Human keratinocytes [2]; human keratinocytes in vitro, ozone exposure
  protective effect against the effect induced by ozone (oxidative stress): highly significant protective effect
